The source of these data is PMC10065791 (eLife, 2023).

One assay addresses T1, I84V mutant protease (Human immunodeficiency virus type 1 group M subtype B, UniProt P12497, I572V/Q495K).
T1 construct: the gene encoding the desired HIV-1 protease was subcloned into the heat-inducible pXC35 expression vector; made in house
Briefly: Ki assay (FRET enzyme inhibition), I84V protease. Type of assay: biochemical, HIV-1. Conditions: I84V drug-resistant protease variant. As for the experimental part: (§1) The highly mutated, resistant, protease variant genes were purchased on a pET11a plasmid with codon optimization for protein expression in Escherichia coli (Genewiz). A Q7K mutation was included to prevent autoproteolysis ([Rosé et al., 1993]). The expression, isolation, and purification of WT and mutant HIV-1 proteases used for enzymatic assays were carried out as previously described ([Henes et al., 2019]; [King et al., 2002]; [Özen et al., 2014]). Briefly, the gene encoding the desired HIV-1 protease was subcloned into the heat-inducible pXC35 expression vector (ATCC) and transformed into E. coli TAP-106 cells. Cells grown in 6 l of Terrific Broth were lysed with a cell disruptor twice, and the protein was purified from inclusion bodies ([Hui et al., 1993]). Inclusion bodies, isolated as a pellet after centrifugation, were dissolved in 50% acetic acid followed by another round of centrifugation at 19,000 rpm for 30 min to remove insoluble impurities. Size-exclusion chromatography was carried out on a 2.1 l Sephadex G-75 Superfine (Sigma Chemical) column equilibrated with 50% acetic acid to separate high molecular weight proteins from the desired protease. Pure fractions of HIV-1 protease were refolded using a tenfold dilution of refolding buffer (0.05 M sodium acetate at pH 5.5, 5% ethylene glycol, 10% glycerol, and 5 µM DTT). Folded protein was concentrated to 0.5–3 mg/ml and stored. The stored protease was used in KM and Ki assays.
(§2) Enzyme inhibition constants (Ki values) were determined as previously described ([Henes et al., 2019]; [Lockbaum et al., 2019]; [Matayoshi et al., 1990]; [Windsor and Raines, 2015]). Briefly, in a 96-well plate, inhibitors were serially diluted down from […] depending on protease resistance. All samples were incubated with 5 nM protein for 1 hr. A 10-amino acid substrate containing an optimized protease cleavage site ([Windsor and Raines, 2015]), purchased from Bachem, with an EDANS/DABCYL FRET pair was dissolved in 4% DMSO at 120 µM. Using a PerkinElmer Envision plate reader, 5 µl of the 120 µM substrate were added to the 96-well plate to a final concentration of 10 µM. […] Data was analyzed with Prism7.

Assay [1] has as its target T2, I50V/A71V mutant protease (Human immunodeficiency virus type 1 group M subtype B, UniProt P12497, A559V/I538V/Q495K).
T2 construct: the gene encoding the desired HIV-1 protease was subcloned into the heat-inducible pXC35 expression vector; made in house
Briefly: Ki assay (FRET enzyme inhibition), I50V/A71V protease. Type of assay: biochemical, HIV-1. The following applies: I50V/A71V drug-resistant protease variant. As for the experimental part:
as §1, §2

Assay [2] deals with virus pool selected to 5000 nM inhibitor. Briefly: TZM infection assay, inhibitor-selected resistant virus pools. Type of assay: cell-based, HIV-1. The following applies: Human immunodeficiency virus 1, read-out: EC50 Viral culture (5000 nM); final virus pool selected with the same inhibitor to 5000 nM; highest level recorded 100 µM. As for the experimental part: In addition to the sequence of the terminally selected virus, we validated that selection occurred over the entire course of the selection protocol. […] In comparing the number of mutations present in cultures using the I84V versus the I50V pathway, we noted that on average there were more mutations in the I50V viruses at the intermediate drug concentration compared to the I84V viruses (100 nM, p=0.03), and this trend continued at the higher drug concentration.
An aliquot of 3 × 10^6 CEMx174 cells was incubated at 37°C for 2–3 hr with 250 µl of a virus stock generated from the HIV-1 infectious molecular clone pNL4-3. The culture volume was then brought to 10 ml with RPMI medium. […] After 48 hr and every 48 hr after, the cells were pelleted by centrifugation and 10 ml of fresh medium and inhibitors were added. When the culture had undergone extensive cytopathic effect (CPE) indicative of viral replication, the supernatant medium and the cells were harvested separately and stored at –80°C. The virus-containing supernatant was used to start the next round of infection, and after several rounds at the initial concentration, the inhibitor concentration was increased 1.5-fold at each subsequent round of virus passage.
PI dilutions were prepared by taking 10 µM stocked and performing a fivefold serial dilution using RPMI media (final drug concentration is […]). One dilution of drug was added to each well of a 24-well plate and repeated so each virus would have a full set of dilutions. Viruses for the assay were made by seeding 3 × 10^6 CEM cells in a 24-well plate and incubating with 250 µl of virus at 37°C for 2–3 hr before bringing the culture to 10 ml with RPMI media. After 48 hr, the medium was changed and repeated every 48 hr after until the culture had undergone CPE. Infected CEM cells were collected and diluted so that 1 ml of cells could be plated in each well containing a unique drug dilution. Then 24 hr later the virus supernatant was collected from each well followed by filtering through a […] then placed in –80°C. Viruses were thawed and added to 96-well plates in triplicate. TZM-bl cells were collected and diluted to a concentration of 2 × 10^5 cells/ml, 100 µl were added on top of the pre-plated viruses. Plates were kept in 37°C, 5% CO2 in an incubator for 48 hr. After 48 hr, the cells in the plates were lysed by removing the medium, washing two times with 100 µl PBS, and then lysed with 1× lysis buffer (made from 5× Promega Firefly Lysis Buffer). Plates were frozen for at least 24 hr and then thawed for 2 hr before analyzing with Promega Firefly Luciferase Kit on a luminometer. Data was analyzed with Prism 7 to fit sigmoidal dose–response curves.

A further assay deals with T3, wild-type NL4-3 protease (Human immunodeficiency virus type 1 group M subtype B, UniProt P12497, Q495K).
T3 construct: the gene encoding the desired HIV-1 protease was subcloned into the heat-inducible pXC35 expression vector; made in house
Briefly: Ki assay (FRET enzyme inhibition), wild-type protease. Type of assay: biochemical, HIV-1. The following applies: limit of detection 5 pM, read-out: Ki WT. As for the experimental part: as §1, §2

Where only a bound is given, the exact number is not on record here.

`CC[C@H](C)CN(C[C@@H](O)[C@H](Cc1ccccc1)NC(=O)O[C@H]1CO[C@H]2OCC[C@H]21)S(=O)(=O)c1ccc2ncsc2c1` [UMASS-5]: the Ki (usually the dissociation constant of the complex between target and ligand, obtained from inhibition or displacement) at I84V mutant protease was 0.007 ± 0.0017 nM; in assay [1], 0.0078 ± 0.0009 nM; at wild-type NL4-3 protease, less than 0.005 nM. In addition, the EC50 (as a rule, the concentration giving half of the maximal effect) in assay [2] is more than 100000 nM.
Turning to `CCC(CC)CN(C[C@@H](O)[C@H](Cc1ccccc1)NC(=O)O[C@H]1CO[C@H]2OCC[C@H]21)S(=O)(=O)c1ccc(OC)cc1` [UMASS-7], the Ki at I84V mutant protease was 0.0121 ± 0.0045 nM; in assay [1], 0.0182 ± 0.003 nM; on wild-type NL4-3 protease, less than 0.005 nM.
In the case of `CC[C@H](C)CN(C[C@@H](O)[C@H](Cc1ccccc1)NC(=O)O[C@H]1CO[C@H]2OCC[C@H]21)S(=O)(=O)c1ccc(CO)cc1` [UMASS-3], the Ki was 0.0099 ± 0.0027 nM at I84V mutant protease, 0.0799 ± 0.0059 nM in assay [1] and less than 0.005 nM on wild-type NL4-3 protease. Also, the EC50 in assay [2] amounted to 14800 nM.
Regarding `CCC(CC)CN(C[C@@H](O)[C@H](Cc1ccccc1)NC(=O)O[C@H]1CO[C@H]2OCC[C@H]21)S(=O)(=O)c1ccc2c(c1)OCO2` [UMASS-9], the Ki was 0.0076 ± 0.0016 nM on I84V mutant protease, 0.0423 ± 0.0026 nM in assay [1] and less than 0.005 nM on wild-type NL4-3 protease. Besides, the EC50 in assay [2] was more than 100000 nM.
On the same counts, the results for `CC[C@H](C)CN(C[C@@H](O)[C@H](Cc1ccccc1)NC(=O)O[C@H]1CO[C@H]2OCC[C@H]21)S(=O)(=O)c1ccc2c(c1)OCO2` [UMASS-4] are 0.0105 ± 0.0018 nM, 0.0329 ± 0.003 nM, less than 0.005 nM and 13700 nM.
